Consider five compounds from patent US20250320252A1 (The Scripps Research Institute, priority 2021, published 2025).

The target of one data set is T1, human GLP-1R (Homo sapiens, UniProt P43220).
T1 construct: expressed in transfected cells
Put plainly: In vitro receptor activation reporter assay (CRE-Luc), HEK293-GLP-1R-CRE. Format: cell-based. Particulars: Table 9; read-out: EC50 [nM] GLP1R.

The target in a further data set is T2, human GIPR (Homo sapiens, UniProt P48546).
T2 construct: expressed in transfected cells
T2 sequence (P48546 22-466): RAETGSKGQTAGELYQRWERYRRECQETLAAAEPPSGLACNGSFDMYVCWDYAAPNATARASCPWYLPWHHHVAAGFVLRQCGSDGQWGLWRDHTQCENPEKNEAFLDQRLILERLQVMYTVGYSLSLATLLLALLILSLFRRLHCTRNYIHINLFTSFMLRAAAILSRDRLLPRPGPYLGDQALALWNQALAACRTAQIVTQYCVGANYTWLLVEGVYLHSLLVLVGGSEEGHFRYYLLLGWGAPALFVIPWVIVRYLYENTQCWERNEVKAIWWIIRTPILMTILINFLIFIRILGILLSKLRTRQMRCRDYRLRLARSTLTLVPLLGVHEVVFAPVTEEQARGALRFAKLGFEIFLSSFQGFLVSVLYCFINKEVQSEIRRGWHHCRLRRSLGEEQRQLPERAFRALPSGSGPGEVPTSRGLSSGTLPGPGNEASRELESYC
Put plainly: In vitro receptor activation reporter assay (CRE-Luc), HEK293-GIPR-CRE. It is filed as cell-based. Particulars: Table 9; read-out: EC50 [nM] GIPR.

The conditions of data set [1]: dog, in vivo.
A short description of data set [2]: Pharmacokinetics in CD-1 mouse, plasma concentration by LC-MS. Format: in vivo. Particulars: for clearance: mouse, read-out: Cl—pred.
Protocol: The peptide plasma concentration at various time points was determined using LC-MS.
For data set [3] the following is noted: cynomolgus monkey, in vivo.
Another data set deals with wild-type mice. Description: Oral glucose tolerance test 2 h and 96 h post injection in wild-type mice. Format: in vivo, mouse. Particulars: 10 nmol/kg s.c., vs vehicle.
In the next data set the test system is normal mice. Description: Oral glucose tolerance test 12 h after single SC dose in mice. It is filed as in vivo, mouse. Particulars: 10 nmol/kg S.C., 12 h before glucose. The method, then: Mice were fasted overnight prior to the oral glucose tolerance test (OGTT), and then dosed with peptide. After 12 h, 1 g of glucose solution per kg body weight was administered orally, and mouse tail blood glucose levels were measured before (0 min) and after glucose challenge for 90 minutes (with measurements at 15, 30, 60 and 90 minutes) (FIG. 16). The data were compared using the unpaired Student's t test. Where appropriate, data were compared using repeated measures or one-way analysis of variance, followed by the Student-Newman-Keuls post hoc test. Calculations for […] (mg/dL*min) were also analyzed and graphed in FIG. 16. […]. […].

Setting [4] is: 1 mg/kg I.V., individual animals.
[5] abbreviates: 1 mg/kg I.V., individual animals, 1 mg/kg.
Where [6] appears, read: 1 mg/kg S.C., individual animals.
The mark [7] stands for this setting: 1 mg/kg S.C., individual animals, 1 mg/kg.
Where [8] appears, read: in vivo, iv, 1 mg/kg, 1 mg/kg I.V., individual animals.

Several values for one entry are separate records, joined by “and”; a condition that tells them apart may be missing. Equal values may be shown once. Read-outs that look alike come from different tables or passages of the source.

T1 sequence (P43220 24-463): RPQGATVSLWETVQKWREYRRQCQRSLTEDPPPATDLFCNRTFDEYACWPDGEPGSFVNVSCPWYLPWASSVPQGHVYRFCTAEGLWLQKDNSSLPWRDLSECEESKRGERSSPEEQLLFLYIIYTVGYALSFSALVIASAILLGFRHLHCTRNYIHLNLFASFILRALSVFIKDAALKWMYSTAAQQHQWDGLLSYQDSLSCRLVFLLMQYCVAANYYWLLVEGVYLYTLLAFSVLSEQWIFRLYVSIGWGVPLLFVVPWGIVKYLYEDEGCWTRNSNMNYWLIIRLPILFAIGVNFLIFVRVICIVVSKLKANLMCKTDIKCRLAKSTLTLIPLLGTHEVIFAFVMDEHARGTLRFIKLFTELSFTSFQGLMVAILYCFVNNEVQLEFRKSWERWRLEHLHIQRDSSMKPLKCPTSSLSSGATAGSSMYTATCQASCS
Description for human GIPR: HEK293 cells were infected with lentivirus encoding firefly luciferase gene under the control of cAMP responsive element (CRE) promoter (Qiagen, The Netherlands) and then were selected using 1 g mL^−1 puromycin (Life Technologies, Carlsbad) for 1 week. The surviving cells (referred to as CRE-HEK293) were expanded and then transfected with a G418 selective mammalian expression plasmid encoding human GLP-1R or GIPR. In brief, GLP-1R or GIPR plasmid was transfected into CRE-HEK293 cells using Lipofectamine 2000 and selected with 400 g mL^−1 Geneticin (Life Technologies, Carlsbad, CA). Single colony stable cell line overexpressing CRE-luciferase and GLP-1R or GIPR (HEK293-GLP-1R-CRE or HEK293-GIPR-CRE) was then established for in vitro activity assay.
The EC50 of each peptide was determined using GraphPad Prism 6 software (GraphPad, San Diego, CA).
Protocol for wild-type mice: Data are means±SE, n=6 per group.
Oral glucose tolerance test (OGTT) Female Charles River CD-1 mice were fasted overnight and then administrated 150 μL of each peptide in PBS (pH=8.2) by i.v. or s.c. route.

`CC[C@H](C)[C@H](NC(=O)[C@H](CO)NC(=O)[C@H](Cc1ccc(O)cc1)NC(=O)[C@H](CC(=O)O)NC(=O)[C@H](CO)NC(=O)[C@@H](NC(=O)[C@H](Cc1ccccc1)NC(=O)[C@@H](NC(=O)CNC(=O)[C@H](CCC(=O)O)NC(=O)C(C)(C)NC(=O)[C@@H](N)Cc1ccc(O)cc1)[C@@H](C)O)[C@@H](C)O)C(=O)N[C@@H](Cc1ccc(O)cc1)C(=O)N[C@@H](CC(C)C)C(=O)N[C@@H](CC(=O)O)C(=O)N[C@@H](CCCCN)C(=O)N[C@H]1CSCC(=O)NCCN(C(=O)CCC(=O)NCCOCCOCCC(=O)NCCOCCOCCC(=O)NCCCC[C@H](NC(=O)CCCCCCCCCCCCCCCCC(=O)O)C(=O)O)CCNC(=O)CSC[C@@H](C(=O)N[C@@H](Cc2c[nH]c3ccccc23)C(=O)N[C@@H](CC(C)C)C(=O)N[C@@H](CC(C)C)C(=O)N[C@@H](C)C(=O)NCC(=O)NCC(=O)N2CCC[C@H]2C(=O)N[C@@H](CO)C(=O)N[C@@H](CO)C(=O)NCC(=O)N[C@@H](C)C(=O)N2CCC[C@H]2C(=O)N2CCC[C@H]2C(=O)N2CCC[C@H]2C(=O)N[C@@H](CO)C(N)=O)NC(=O)[C@H](C(C)C)NC(=O)[C@H](Cc2ccccc2)NC(=O)[C@H](CCC(=O)O)NC(=O)C(C)(C)NC(=O)[C@H](C)NC(=O)[C@H](C)NC1=O` [C(17-24) - L5A, YAibEGT-FTSDY-SIYLD-KXAAAib-EFVXW-LLAGG-PSSGA-PPPS-NH2 (where each X is C)]: the EC50 (usually the concentration giving half of the maximal effect) on human GLP-1R was 0.11 nM; on human GIPR it was 0.05 nM.

On to `CC[C@H](C)[C@H](NC(=O)[C@H](CC(C)C)NC(=O)[C@H](Cc1c[nH]c2ccccc12)NC(=O)[C@@H]1CSCC(=O)NCCN(C(=O)CCC(=O)NCCOCCOCCC(=O)NCCOCCOCCC(=O)NCCCC[C@H](NC(=O)CCCCCCCCCCCCCCCCCCC(=O)O)C(=O)O)CCNC(=O)CSC[C@H](NC(=O)[C@H](CCCCN)NC(=O)[C@H](CC(=O)O)NC(=O)[C@H](CC(C)C)NC(=O)[C@H](Cc2ccc(O)cc2)NC(=O)[C@@H](NC(=O)[C@H](CO)NC(=O)[C@H](Cc2ccc(O)cc2)NC(=O)[C@H](CC(=O)O)NC(=O)[C@H](CO)NC(=O)[C@@H](NC(=O)[C@H](Cc2ccccc2)NC(=O)[C@@H](NC(=O)CNC(=O)[C@H](CCC(=O)O)NC(=O)C(C)(C)NC(=O)[C@@H](N)Cc2ccc(O)cc2)[C@@H](C)O)[C@@H](C)O)[C@@H](C)CC)C(=O)N[C@@H](C)C(=O)N[C@@H](C)C(=O)NC(C)(C)C(=O)N[C@@H](CCC(=O)O)C(=O)N[C@@H](Cc2ccccc2)C(=O)N[C@@H](C(C)C)C(=O)N1)C(=O)N[C@@H](C)C(=O)NCC(=O)NCC(=O)N1CCC[C@H]1C(=O)N[C@@H](CO)C(=O)N[C@@H](CO)C(=O)NCC(=O)N[C@@H](C)C(=O)N1CCC[C@H]1C(=O)N1CCC[C@H]1C(=O)N1CCC[C@H]1C(=O)N[C@@H](CO)C(N)=O` [mCMV268, YAibEGT-FTSDY-SIYLD-KXAAAib-EFVXW-LIAGG-PSSGA-PPPS-NH2 (where each X is C)], for which, in data set [1] (po), the Bioavailability is 0.27%, 0.27%,.

In data set [2] (setting [4]), `CC[C@H](C)[C@H](NC(=O)[C@H](CC(C)C)NC(=O)[C@H](Cc1c[nH]c2ccccc12)NC(=O)[C@H](CC(N)=O)NC(=O)[C@@H](NC(=O)[C@H](Cc1ccccc1)NC(=O)[C@@H]1CSCC(=O)NCCN(C(=O)CCC(=O)NCCOCCOCCC(=O)NCCOCCOCCC(=O)NCCCC[C@H](NC(=O)CCCCCCCCCCCCCCCCC(=O)O)C(=O)O)CCNC(=O)CSC[C@H](NC(=O)[C@H](Cc2ccc(O)cc2)NC(=O)[C@@H](NC(=O)[C@H](CO)NC(=O)[C@H](Cc2ccc(O)cc2)NC(=O)[C@H](CC(=O)O)NC(=O)[C@H](CO)NC(=O)[C@@H](NC(=O)[C@H](Cc2ccccc2)NC(=O)[C@@H](NC(=O)CNC(=O)[C@H](CCC(=O)O)NC(=O)C(C)(C)NC(=O)[C@@H](N)Cc2ccc(O)cc2)[C@@H](C)O)[C@@H](C)O)[C@@H](C)CC)C(=O)N[C@@H](CC(=O)O)C(=O)N[C@@H](CCCCN)C(=O)N[C@@H](CCC(N)=O)C(=O)N[C@@H](C)C(=O)N[C@@H](C)C(=O)NC(C)(C)C(=O)N1)C(C)C)C(=O)N[C@@H](C)C(=O)NCC(=O)NCC(=O)N1CCC[C@H]1C(=O)N[C@@H](CO)C(=O)N[C@@H](CO)C(=O)NCC(=O)N[C@@H](C)C(=O)N1CCC[C@H]1C(=O)N1CCC[C@H]1C(=O)N1CCC[C@H]1C(=O)N[C@@H](CO)C(N)=O` [mCMZ370, YAibEGT-FTSDY-SIYXD-KQAAAib-XFVNW-LIAGG-PSSGA-PPPS-NH2 (where each X is C)] came in with a Tlast of 72 h. In addition, in data set [2] (setting [5]), the “AUC—%Extrap—pred” value was 0.39% and 0.38% and 0.6%; the “Cl—pred” value is 9.72 mL/h/kg; the “Vz—pred” value is on record as 0.099 L/kg. The Tlast in data set [2] (setting [6]) is 72 h. In addition, in data set [2] (setting [7]), the “AUC—%Extrap—pred” value is 0.26% and 0.31% and 0.19%; the “AUMC—%Extrap—pred” value is on record as 0.99%; the “Cl—Fpred” value was 0.24 mL/min/kg and 0.21 mL/min/kg and 0.06 mL/min/kg; the “V—F—pred” value is 0.2 L/kg and 0.15 L/kg and 0.13 L/kg. Further, the clearance in data set [2] (setting [8]) amounted to 6.72 mL/h/kg.

Regarding `CC[C@H](C)[C@H](NC(=O)[C@H](CC(C)C)NC(=O)[C@H](Cc1c[nH]c2ccccc12)NC(=O)[C@@H]1CSCC(=O)NCCN(C(=O)CCC(=O)NCCOCCOCCC(=O)NCCOCCOCCC(=O)NCCCC[C@H](NC(=O)CCCCCCCCCCCCCCCCC(=O)O)C(=O)O)CCNC(=O)CSC[C@H](NC(=O)[C@H](CCCCN)NC(=O)[C@H](CC(=O)O)NC(=O)[C@H](CC(C)C)NC(=O)[C@H](Cc2ccc(O)cc2)NC(=O)[C@@H](NC(=O)[C@H](CO)NC(=O)[C@H](Cc2ccc(O)cc2)NC(=O)[C@H](CC(=O)O)NC(=O)[C@H](CO)NC(=O)[C@@H](NC(=O)[C@H](Cc2ccccc2)NC(=O)[C@@H](NC(=O)CNC(=O)[C@H](CCC(=O)O)NC(=O)C(C)(C)NC(=O)[C@@H](N)Cc2ccc(O)cc2)[C@@H](C)O)[C@@H](C)O)[C@@H](C)CC)C(=O)N[C@@H](C)C(=O)N[C@@H](C)C(=O)NC(C)(C)C(=O)N[C@@H](CCC(=O)O)C(=O)N[C@@H](Cc2ccccc2)C(=O)N[C@@H](C(C)C)C(=O)N1)C(=O)N[C@@H](C)C(=O)NCC(=O)NCC(=O)N1CCC[C@H]1C(=O)N[C@@H](CO)C(=O)N[C@@H](CO)C(=O)NCC(=O)N[C@@H](C)C(=O)N1CCC[C@H]1C(=O)N1CCC[C@H]1C(=O)N1CCC[C@H]1C(=O)N[C@@H](CO)C(N)=O` [mCMZ371, YAibEGT-FTSDY-SIYLD-KXAAAib-EFVXW-LIAGG-PSSGA-PPPS-NH2 (where each X is C)], the “t1/2 in cynomolgus monkeys” value in data set [3] is recorded as “long t1/2”. The Tlast was 240 h in data set [3] (iv); 240 h in data set [3] (sc); 72 h in data set [2] (setting [4]); 72 h in data set [2] (setting [6]); 240 h in data set [1] (iv); 240 h in data set [1] (sc). Besides, in data set [2] (1 mg/kg I.V. or S.C.), the “AUC compared with mCMZ370” value is “significantly larger area under the curve”. Moreover, the “half-life compared with mCMZ370” value in data set [2] (1 mg/kg I.V. or S.C.) is listed as “longer half-life”. Besides, the “AUC—%Extrap—pred” value in data set [2] (setting [5]) is recorded as 0.75%. In data set [2] (setting [5]), the “Cl—pred” value is 2.76 mL/h/kg and 2.46 mL/h/kg. Further, the “Cl—Fpred” value in data set [2] (setting [7]) is 0.12 mL/min/kg and 0.08 mL/min/kg and 0.24 mL/min/kg. The “V—F—pred” value in data set [2] (setting [7]) was 0.06 L/kg and 0.12 L/kg and 0.08 L/kg. The Vd in data set [2] (in vivo, iv, 1 mg/kg I.V., individual animals, read-out: Vss—pred) turned out to be 0.054 L/kg. Further, in data set [2] (setting [8]), the clearance is 2.88 mL/h/kg. Besides, the “t1/2 in dogs” value in data set [1] was “long t1/2”.

As to Semaglutide, the “glucose tolerance (OGTT) 96 h after administration” value with wild-type mice was “did not exhibit any improvement over the vehicle”. Further, the “effects on glucose tolerance at 10 nmol/kg” value in the data set with normal mice was “indistinguishable effects on glucose tolerance”.
